Experimental findings from patent US20260184710A1, “CASITAS B-LINEAGE LYMPHOMA PROTOONCOGENE B (CBL-B) DEGRADING COMPOUNDS AND ASSOCIATED METHODS OF USE” (Arvinas Operations, Inc., priority 2022, published 2026) are described below.

Experiment [1] has as its target T1, Cbl-b (Homo sapiens, UniProt Q13191).
T1 construct: Cbl-b-HiBit KI Jurkat Cells were purchased from Promega; host or cells: Cbl-b-HiBiT knock-in Jurkat cells
Nature of the experiment: Cbl-b Degradation Method A (FACS, anti-Cbl-b antibody staining). The format is cell-based. Conditions: Cbl-b-HiBit KI Jurkat Cells, incubated at least 20 hours; for DC50: half maximal degradation, read-out: Cbl-b Degredation Method A IC50; for Dmax: Jurkat, maximum degradation observed, read-out: Cbl-b Degredation Method A Dmax (%). In a few lines:
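Readout is flow cytometry of fixed, permeabilized cells immunostained for Cbl-b (primary 1:200, AF488 secondary). Cells were Cbl-b-HiBit knock-in Jurkat, exposed to compound ≥20 h at 37 °C; half-maximal degradation concentration (DC50) and maximal degradation (Dmax) calculated relative to control.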
(In general: HiBiT is a short tag that completes a luciferase, so light tracks the accessible tagged protein.)

Experiment [2] has as its target T1, Cbl-b. In words: Cbl-b Degradation Method B (Nano-Glo HiBiT lytic detection). The format is cell-based. Conditions: Cbl-b-HiBit KI Jurkat Cells, incubated at least 6-24 hours; for DC50: half maximal degradation, read-out: Cbl-b Degredation Method B IC50; for Dmax / Cbl-b Degredation Method B Dmax (%): maximum degradation observed; for Dmax: read-out: Cbl-b Degredation Method B Dmax (%). In a few lines:
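An 11-point, 3-fold compound dilution was applied for 6-24 hours to Jurkat cells carrying HiBiT-tagged endogenous Cbl-b. Lytic HiBiT luminescence quantified residual protein. Outputs are DC50 and Dmax relative to DMSO control.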

SMILES strings stand for the structures.

T1 sequence (Q13191 whole entry): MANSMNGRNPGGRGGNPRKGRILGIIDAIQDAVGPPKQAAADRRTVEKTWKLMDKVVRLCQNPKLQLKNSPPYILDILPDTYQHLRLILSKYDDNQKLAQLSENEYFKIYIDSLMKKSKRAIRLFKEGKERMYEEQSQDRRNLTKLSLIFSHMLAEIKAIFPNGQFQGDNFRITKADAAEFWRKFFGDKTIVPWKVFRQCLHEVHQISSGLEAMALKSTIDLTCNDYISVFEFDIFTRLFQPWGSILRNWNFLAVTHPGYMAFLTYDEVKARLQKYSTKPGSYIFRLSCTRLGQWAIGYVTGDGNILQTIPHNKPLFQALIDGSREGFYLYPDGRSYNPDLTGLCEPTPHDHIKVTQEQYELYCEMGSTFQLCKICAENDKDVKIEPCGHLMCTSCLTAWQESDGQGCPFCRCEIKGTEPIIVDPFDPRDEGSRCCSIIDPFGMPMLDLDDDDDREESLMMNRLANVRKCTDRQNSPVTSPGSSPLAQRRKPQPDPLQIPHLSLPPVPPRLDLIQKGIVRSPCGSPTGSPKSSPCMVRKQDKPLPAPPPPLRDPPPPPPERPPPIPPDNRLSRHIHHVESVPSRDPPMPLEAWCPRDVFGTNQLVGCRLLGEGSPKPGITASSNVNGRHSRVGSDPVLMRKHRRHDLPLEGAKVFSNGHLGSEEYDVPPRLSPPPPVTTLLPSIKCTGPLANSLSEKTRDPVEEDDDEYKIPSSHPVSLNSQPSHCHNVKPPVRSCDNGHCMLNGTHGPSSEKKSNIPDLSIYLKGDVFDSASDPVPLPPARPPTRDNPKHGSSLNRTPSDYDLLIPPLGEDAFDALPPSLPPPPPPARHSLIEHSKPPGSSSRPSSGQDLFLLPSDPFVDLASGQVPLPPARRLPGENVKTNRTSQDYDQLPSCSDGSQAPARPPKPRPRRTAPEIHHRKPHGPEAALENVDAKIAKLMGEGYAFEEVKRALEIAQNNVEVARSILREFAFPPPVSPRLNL

On to `Cn1cnnc1CC1(c2cccc(N3Cc4c(cc(N5CCC[C@H](CN6CCC(CN7CCC(CN8CCN(c9ccc%10c(c9)C(=O)N(C9CCC(=O)NC9=O)C%10=O)CC8)CC7)CC6)C5)cc4C(F)(F)F)C3=O)c2)COC1` (stereo partly drawn) [Example 16, 2-(2,6-dioxo-3-piperidyl)-5-[4-[[1-[[1-[[(3R)-1-[2-[3-[3-[(4-methyl-1,2,4-triazol-3-yl)methyl]oxetan-3-yl]phenyl]-3-oxo-7-(trifluoromethyl)isoindolin-5-yl]-3-piperidyl]methyl]-4-piperidyl]methyl]-4-piperidyl]methyl]piperazin-1-yl]isoindoline-1,3-dione], for which, in experiment [1], the DC50 lay in the range of 50 to 500 nM and the Dmax is over 70%. Also, in experiment [2], the DC50 was in the range of 5 to 50 nM and the Dmax was under 35%.
As to `Cn1cnnc1CC1(c2cccc(N3Cc4c(cc(CN5CCC(CN6CC7(CCN(c8ccc9c(c8)C(=O)N(C8CCC(=O)NC8=O)C9=O)CC7)C6)CC5)cc4C(F)(F)F)C3=O)c2)COC1` (stereo not drawn) [Example 81, 2-(2,6-dioxopiperidin-3-yl)-5-{2-[(1-{[2-(3-{3-[(4-methyl-4H-1,2,4-triazol-3-yl)methyl]oxetan-3-yl}phenyl)-3-oxo-7-(trifluoromethyl)-2,3-dihydro-1H-isoindol-5-yl]methyl}piperidin-4-yl)methyl]-2,7-diazaspiro[3.5]nonan-7-yl}-2,3-dihydro-1H-isoindole-1,3-dione], the DC50 in experiment [1] and in experiment [2] was over 500 nM each time.
In the case of `CC1CN(C[C@H]2CC[C@H](OC3CCN(c4ccc5c(c4F)CN(C4CCC(=O)NC4=O)C5=O)CC3)CC2)CCN1Cc1cc2c(c(C(F)(F)F)c1)CN(c1cccc([C@]3(Cc4nncn4C)C[C@@H](C#N)C3)c1)C2=O` (stereo partly drawn) [Example 204, (1r,3r)-3-(3-{6-[(2-methyl-4-{[(1r,4r)-4-({1-[2-(2,6-dioxopiperidin-3-yl)-4-fluoro-1-oxo-2,3-dihydro-1H-isoindol-5-yl]piperidin-4-yl}oxy)cyclohexyl]methyl}piperazin-1-yl)methyl]-1-oxo-4-(trifluoromethyl)-2,3-dihydro-1H-isoindol-2-yl}phenyl)-3-[(4-methyl-4H-1,2,4-triazol-3-yl)methyl]cyclobutane-1-carbonitrile], in experiment [1], the DC50 was under 5 nM and the Dmax was over 70%. In experiment [2], the DC50 was under 5 nM and the Dmax lay in the range of 35 to 70%.
As for `Cn1cnnc1CC1(c2cccc(N3Cc4c(cc(CN5CCC(N6CCN(CC7CCN(c8ccc9c(c8)C(=O)N(C8CCC(=O)NC8=O)C9=O)CC7)CC6)CC5)cc4C(F)(F)F)C3=O)c2)COC1` (stereo not drawn) [Example 103, 2-(2,6-dioxopiperidin-3-yl)-5-(4-{[4-(1-{[2-(3-{3-[(4-methyl-4H-1,2,4-triazol-3-yl)methyl]oxetan-3-yl}phenyl)-3-oxo-7-(trifluoromethyl)-2,3-dihydro-1H-isoindol-5-yl]methyl}piperidin-4-yl)piperazin-1-yl]methyl}piperidin-1-yl)-2,3-dihydro-1H-isoindole-1,3-dione], in experiment [1], the DC50 is over 500 nM and the Dmax was in the range of 35 to 70%. Besides, the DC50 in experiment [2] was over 500 nM.
For the molecule `Cn1cnnc1CC1(c2cccc(N3Cc4c(cc(CN5CCN(C[C@H]6CC[C@H](OC7CCN(c8ccc9c(c8F)CN(C8CCC(=O)NC8=O)C9=O)CC7)CC6)CC5)cc4C(F)(F)F)C3=O)c2)COC1` (stereo partly drawn) [Example 2, 3-[4-fluoro-1-oxo-5-(4-{[(1r, 4r)-4-[(4-{[2-(3-{3-[(4-methyl-4H-1,2,4-triazol-3-yl)methyl]oxetan-3-yl}phenyl)-3-oxo-7-(trifluoromethyl)-2,3-dihydro-1H-isoindol-5-yl]methyl}piperazin-1-yl)methyl]cyclohexyl]oxy}piperidin-1-yl)-2,3-dihydro-1H-isoindol-2-yl]piperidine-2,6-dione], in experiment [1], the DC50 is under 5 nM and the Dmax was over 70%. In experiment [2], the DC50 was under 5 nM and the Dmax lay in the range of 35 to 70%.
For `Cn1cnnc1CC1(c2cccc(N3Cc4c(cc(CN5CCN(C6CCN(CC7CCN(c8ccc9c(c8)C(=O)N(C8CCC(=O)NC8=O)C9=O)CC7)CC6)CC5)cc4C(F)(F)F)C3=O)c2)COC1` (stereo not drawn) [Example 104, 2-(2,6-dioxopiperidin-3-yl)-5-(4-{[4-(4-{[2-(3-{3-[(4-methyl-4H-1,2,4-triazol-3-yl)methyl]oxetan-3-yl}phenyl)-3-oxo-7-(trifluoromethyl)-2,3-dihydro-1H-isoindol-5-yl]methyl}piperazin-1-yl)piperidin-1-yl]methyl}piperidin-1-yl)-2,3-dihydro-1H-isoindole-1,3-dione], the values for the DC50 in experiment [1] and in experiment [2] were 50 to 500 nM and over 500 nM, respectively.
`Cn1cnnc1CC1(c2cccc(N3Cc4c(cc(CN5CCN(C[C@H]6CC[C@H](OC7CCN(c8cccc9c8ncn9C8CCC(=O)NC8=O)CC7)CC6)CC5(C)C)cc4C(F)(F)F)C3=O)c2)CC(C#N)C1` (stereo partly drawn) [Example 314, (1r**,3r**)-3-(3-{6-[(2,2-dimethyl-4-{[(1r*,4r*)-4-({1-[1-(2,6-dioxopiperidin-3-yl)-1H-1,3-benzodiazol-4-yl]piperidin-4-yl}oxy)cyclohexyl]methyl}piperazin-1-yl)methyl]-1-oxo-4-(trifluoromethyl)-2,3-dihydro-1H-isoindol-2-yl}phenyl)-3-[(4-methyl-4H-1,2,4-triazol-3-yl)methyl]cyclobutane-1-carbonitrile]: in experiment [1], the DC50 lay within 5 to 50 nM and the Dmax lay within 35 to 70%. Further, in experiment [2], the DC50 is 50 to 500 nM and the “Cbl-b Degredation Method B Dmax (%)” value is listed as “B (35 < B < 70)”.
Turning to `Cn1cnnc1CC1(c2cccc(N3Cc4c(cc(CN5CCC[C@@H](CN6CCN(C[C@H]7CC[C@H](OC8CCN(c9ccc%10c(c9F)CN(C9CCC(=O)NC9=O)C%10=O)CC8)CC7)CC6(C)C)C5)cc4C(F)(F)F)C3=O)c2)COC1` (stereo partly drawn) [Example 286, 3-[4-fluoro-1-oxo-5-(4-{[(1r,4r)-4-[(3,3-dimethyl-4-{[(3R)-1-{[2-(3-{3-[(4-methyl-4H-1,2,4-triazol-3-yl)methyl]oxetan-3-yl}phenyl)-3-oxo-7-(trifluoromethyl)-2,3-dihydro-1H-isoindol-5-yl]methyl}piperidin-3-yl]methyl}piperazin-1-yl)methyl]cyclohexyl]oxy}piperidin-1-yl)-2,3-dihydro-1H-isoindol-2-yl]piperidine-2,6-dione], in experiment [1], the DC50 is 50 to 500 nM and the Dmax was 35 to 70%. For the same molecule, in experiment [2], the DC50 is under 5 nM and the “Cbl-b Degredation Method B Dmax (%)” value is “C (C ≤ 35)”.
As to `CC1c2cc(N3CCC(CN4CCC5(CC4)CN(c4cc6c(c(C(F)(F)F)c4)CN(c4cccc(C7(Cc8nncn8C)COC7)c4)C6=O)C5)CC3)ccc2C(=O)N1C1CCC(=O)NC1=O` (stereo not drawn) [Example 138, 3-{3-methyl-5-[4-({2-[2-(3-{3-[(4-methyl-4H-1,2,4-triazol-3-yl)methyl]oxetan-3-yl}phenyl)-3-oxo-7-(trifluoromethyl)-2,3-dihydro-1H-isoindol-5-yl]-2,7-diazaspiro[3.5]nonan-7-yl}methyl)piperidin-1-yl]-1-oxo-2,3-dihydro-1H-isoindol-2-yl}piperidine-2,6-dione], the DC50 in experiment [1] was 5 to 50 nM; in experiment [2], under 5 nM. For the same molecule, the Dmax was 35 to 70% in experiment [1] and under 35% in experiment [2].
Turning to `Cn1cnnc1CC1(c2cccc(N3Cc4c(cc(N5CCC(CC6CCN(c7cc8c(cc7F)C(=O)N(C7CCC(=O)NC7=O)C8=O)CC6)CC5)cc4C(F)(F)F)C3=O)c2)COC1` (stereo not drawn) [Example 118, 2-(2,6-dioxopiperidin-3-yl)-5-fluoro-6-[4-({1-[2-(3-{3-[(4-methyl-4H-1,2,4-triazol-3-yl)methyl]oxetan-3-yl}phenyl)-3-oxo-7-(trifluoromethyl)-2,3-dihydro-1H-isoindol-5-yl]piperidin-4-yl}methyl)piperidin-1-yl]-2,3-dihydro-1H-isoindole-1,3-dione], the DC50 in experiment [1] and in experiment [2] was over 500 nM throughout.
As to `COc1c(N2CCC(O[C@H]3CC[C@@H](CN4CCN(C[C@H]5CCCN(Cc6cc7c(c(C(F)(F)F)c6)CN(c6cccc(C8(Cc9nncn9C)COC8)c6)C7=O)C5)CC4)CC3)CC2)ccc2c1CN(C1CCC(=O)NC1=O)C2=O` (stereo partly drawn) [Example 163, 3-[4-methoxy-1-oxo-5-(4-{[(1r,4r)-4-[(4-{[(3S)-1-{[2-(3-{3-[(4-methyl-4H-1,2,4-triazol-3-yl)methyl]oxetan-3-yl}phenyl)-3-oxo-7-(trifluoromethyl)-2,3-dihydro-1H-isoindol-5-yl]methyl}piperidin-3-yl]methyl}piperazin-1-yl)methyl]cyclohexyl]oxy}piperidin-1-yl)-2,3-dihydro-1H-isoindol-2-yl]piperidine-2,6-dione], in experiment [1], the DC50 is under 5 nM and the Dmax is over 70%. Besides, in experiment [2], the DC50 is under 5 nM and the Dmax was over 70%.
As to `Cn1cnnc1CC1(c2cccc(N3Cc4c(cc(CN5CCC(CC6CN(c7cccc8c7C(=O)N(C7CCC(=O)NC7=O)C8=O)C6)CC5)cc4C(F)(F)F)C3=O)c2)COC1` (stereo not drawn) [Example 99, 2-(2,6-dioxopiperidin-3-yl)-4-{3-[(1-{[2-(3-{3-[(4-methyl-4H-1,2,4-triazol-3-yl)methyl]oxetan-3-yl}phenyl)-3-oxo-7-(trifluoromethyl)-2,3-dihydro-1H-isoindol-5-yl]methyl}piperidin-4-yl)methyl]azetidin-1-yl}-2,3-dihydro-1H-isoindole-1,3-dione], the DC50 in experiment [1] and in experiment [2] was over 500 nM throughout.

One may read the Dmax as the greatest extent of degradation seen.
